The conditions of data set [1]: Liquid; for mass density: 101.33 kPa, Pycnometric method.
Data set [2] can be described thus: refractive index (Na D-line) (dimensionless). The conditions noted are these: 101.33 kPa, Liquid, Standard Abbe refractometry.

Broadly, the mass density is mass per unit of volume. The refractive index is a measure of how strongly the sample bends light.

Each structure is given as a SMILES string. ± gives the expanded uncertainty stated by the source.

For the molecule `CCCCC(C)=O` [2-hexanone], the mass density in data set [1] (293.15 K) amounted to 811.2 ± 0.8 kg/m3. Further, in data set [1], the Normal boiling temperature was found to be 127.54 ± 0.13 °C. The refractive index in data set [2] (293.15 K) is 1.4008 ± 0.0007.

In the case of `OC1CCCCC1` [cyclohexanol], the mass density in data set [1] (303.15 K) is given as 941.6 ± 0.9 kg/m3. Moreover, the Normal boiling temperature in data set [1] was 160.74 ± 0.14 °C. For the same molecule, the refractive index in data set [2] (303.15 K) was 1.4621 ± 0.0007.

`CCCCCCCCC` [nonane]: the mass density in data set [1] (293.15 K) was found to be 717.6 ± 0.7 kg/m3. The Normal boiling temperature in data set [1] is 150.82 ± 0.14 °C. The refractive index in data set [2] (293.15 K) was determined as 1.4055 ± 0.0007.

For the origin of these results see the NIST ThermoML archive (doi:10.1021/je040002p).
